Test results: patent US7998978B2 (Pfizer Inc., priority 2006, dated 2011)
One block for each compound: values may come before it.

Biological target: T1, JNK1α1 (Homo sapiens, UniProt P45983)
T1 construct: catalytic domain containing amino acids 1-364 and N-terminal hexahistidine tag; hexahistidine (His6) (N); made in house; host or cells: E. coli BL21 (DE3)
Experiment: Coupled spectrophotometric (PK/LDH) JNK1α1 assay: % inhibition and Ki determination
Type: biochemical
In short: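 Initial rates were taken from the absorbance decrease at 340 nm at 30° C. Ki was fitted with a tight-binding model over 11 concentrations (top 100 μM); single-point inhibition was tested at 1 or 10 μM.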

T1 sequence (P45983 1-364): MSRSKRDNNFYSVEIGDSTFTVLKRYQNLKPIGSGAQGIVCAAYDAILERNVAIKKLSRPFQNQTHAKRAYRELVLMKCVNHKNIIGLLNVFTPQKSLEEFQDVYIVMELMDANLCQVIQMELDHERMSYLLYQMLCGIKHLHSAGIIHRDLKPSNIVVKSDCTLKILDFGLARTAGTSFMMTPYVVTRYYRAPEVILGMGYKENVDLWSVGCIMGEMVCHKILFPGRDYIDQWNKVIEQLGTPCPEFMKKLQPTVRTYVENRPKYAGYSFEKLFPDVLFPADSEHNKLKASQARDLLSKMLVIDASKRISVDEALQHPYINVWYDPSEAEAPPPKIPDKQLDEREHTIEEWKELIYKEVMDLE

- Ki (JNK-1): 102 nM
Structure (SMILES): CC(C)C[C@@H](CO)NC(=O)c1ccc2cnc(NC3CCCCC3)nc2c1 [Example 374, 2-(cyclohexylamino)-N-[(1S)-1-(hydroxymethyl)-3-methylbutyl]quinazoline-7-carboxamide]

- inhibition at 1 µM (@1 uM, read-out: % Inhibition JNK-1): 14%
Structure (SMILES): Cc1cccc(CNC(=O)c2cccc3cnc(N[C@H]4CC[C@H](O)CC4)nc23)n1 [Example 481, 2-[(trans-4-hydroxycyclohexyl)amino]-N-[(6-methylpyridin-2-yl)methyl]quinazoline-carboxamide]

- inhibition at 10 µM (@10 uM, read-out: % Inhibition JNK-1): 31%
Structure (SMILES): O[C@H]1CC[C@H](Nc2ncc3cccc(OC[C@@H]4CCCN5CCCC[C@H]45)c3n2)CC1 [Example 263, trans-4-({8-[(1R, 9aR)-octahydro-2H-quinolizin-1-ylmethoxy]quinazolin-2-yl}amino)cyctohexanol]
